Patent publication US20240165112A1, “THERAPY FOR THE TREATMENT OF CANCER” (Bristol-Myers Squibb Company, priority 2022, published 2024)

How the values were obtained:
Assay in all cases: 3D clonogenic assay in patient derived organoids
Assay type in all cases: cell-based, human
[1] = tested on: CXF2129 organoid, colon cancer; conditions: for Combination activity 5 μM Compound 1 (cAUC % reduction): chemotherapy dose titration + 5 μM Compound 1 vs chemotherapy alone; for Combination activity 20 μM Compound 1 (cAUC % reduction): chemotherapy dose titration + 20 μM Compound 1 vs chemotherapy alone
Description: (§1) Five tumor cell lines (4T1.2, A549, EMT6, NCI-H460, and HT29) were treated with a range of paclitaxel or 5-FU concentrations in the presence of dimethlylsulfoxide (DMSO), 5 μM Compound 1, or 20 μM Compound 1. Cells were imaged 4 days after treatment and percent confluence was assessed by image quantification. EC50 values for cell confluence were used to assess chemotherapy potency. Eleven patient-derived tumor organoids (MAXFTN449, MAXFTN2990, PAXF1657, PAXF2131, CXF1256, CXF2129, CXF2061, LXFE2478, LXFE690, LXFA677, LXFA644) were seeded in a 3D matrix and treated with a range of paclitaxel, 5-FU, SN38, Gemcitabine, oxaliplatin, and carboplatin concentrations in the presence of DMSO, 5 μM Compound 1, or 20 μM Compound 1. After 8 to 13 days in culture, colonies were stained, imaged, and counted. A dose response curve was generated for chemotherapy alone or chemotherapy in combination with 5 or 20 μM Compound 1. Combination activity was defined as a percentage of the area under the chemotherapy dose response curve (cAUC) for Compound 1 combination groups compared to the cAUC of chemotherapy alone.
(§2) For combination experiments, working stock solutions of all compounds were prepared in DMSO at concentrations of 660-fold the highest test concentration used and stored at −20° C. Platin compounds were prepared freshly on each treatment day. On each day of an experiment, an aliquot of the working stock solutions was used and stored at room temperature prior to and during treatment. First, 1:2 dilutions of 660-fold concentrated working stocks were prepared in DMSO (in case of monotherapy controls), or equal amounts of the compound working stocks were mixed (in case of drug combinations). Then, different dilutions of these 330-fold concentrated solutions were prepared in DMSO to give an 8×2 matrix combination layout with conditions. The DMSO dilutions were further diluted […] into cell culture medium (IMDM, supplemented with 20% (v/v) fetal bovine serum, and 50 μg/mL gentamicin) in an intermediate dilution plate. Finally, 10 μL taken from the intermediate dilution plate were transferred to 140 μL of cells and medium per well of the final assay plate. Thus, the DMSO dilutions used for the mono- and the combination-treatment were diluted 1:660, and the DMSO concentration in the assay was […].
(§3) Tumors were passaged as subcutaneous xenografts in NMRI nu/nu mice. At a tumor volume of 400 to 1000 mm^3, tumor-bearing mice were euthanized, and tumors were collected under sterile conditions without delay. Tumors were mechanically disaggregated and subsequently incubated with an enzyme cocktail consisting of collagenase type IV (41 U/mL), DNase I (125 U/mL), hyaluronidase type III (100 U/mL), and dispase II (1 U/mL) in RPMI 1640 medium at 37° C. for 60 to 120 minutes. Cells were passed through sieves of 100 μm and 40 μm mesh size, and washed with RPMI 1640 medium. The percentage of viable cells was determined in a Neubauer-hemocytometer using trypan blue exclusion. Aliquots of the cells were frozen down and stored in liquid nitrogen vapor phase. On each day of an experiment, a frozen aliquot of tumor cells was thawed and used for preparation of assay plates.
(§4) The clonogenic assay was carried out in a 96 well plate format using ultra low attachment plates. For each test, plates were prepared as follows: each test well contained a layer of semi-solid medium with tumor cells (50 μL), and a second layer of medium supernatant with or without test compound (100 μL). The cell layer consisted of […] to 12.5×10^3 tumor cells per well, which were seeded in 50 μL/well cell culture medium (IMDM, supplemented with 20% (v/v) fetal bovine serum, 50 μg/mL gentamicin, and 0.4% (w/v) agar). After 24 hours, the soft-agar layer was covered with 90 μL of the same culture medium without agar, and 10 μL of control medium or test compound after serial dilution in DMSO for the duration of the experiment (continuous exposure, 100 μL drug overlay).

[2] = tested on: CXF1256 organoid, colon cancer; conditions: for Combination activity 5 μM Compound 1 (cAUC % reduction): chemotherapy dose titration + 5 μM Compound 1 vs chemotherapy alone; for Combination activity 20 μM Compound 1 (cAUC % reduction): chemotherapy dose titration + 20 μM Compound 1 vs chemotherapy alone
Description: as §1, §2, §3, §4

[3] = tested on: CXF2061 organoid, colon cancer; conditions: for Combination activity 5 μM Compound 1 (cAUC % reduction): chemotherapy dose titration + 5 μM Compound 1 vs chemotherapy alone; for Combination activity 20 μM Compound 1 (cAUC % reduction): chemotherapy dose titration + 20 μM Compound 1 vs chemotherapy alone
Description: as §1, §2, §3, §4

[4] = tested on: MAXFTN449 organoid, breast cancer (triple negative)
Description: as §1, §2, §3, §4

[5] = tested on: MAXFTN2990 organoid, breast cancer (triple negative)
Description: as §1, §2, §3, §4

[6] = chemotherapy dose titration + 5 μM Compound 1 vs chemotherapy alone
[7] = chemotherapy dose titration + 20 μM Compound 1 vs chemotherapy alone

SMILES	Combination activity 5 μM Compound 1 (cAUC % reduction) [1] [%]	Combination activity 20 μM Compound 1 (cAUC % reduction) [1] [%]	Combination activity 5 μM Compound 1 (cAUC % reduction) [2] [%]	Combination activity 20 μM Compound 1 (cAUC % reduction) [2] [%]	Combination activity 5 μM Compound 1 (cAUC % reduction) [3] [%]	Combination activity 20 μM Compound 1 (cAUC % reduction) [3] [%]	Combination activity 5 μM Compound 1 (cAUC % reduction) [4, 6] [%]	Combination activity 20 μM Compound 1 (cAUC % reduction) [4, 7] [%]	Combination activity 5 μM Compound 1 (cAUC % reduction) [5, 6] [%]	Combination activity 20 μM Compound 1 (cAUC % reduction) [5, 7] [%]
O=C1[O][Pt]2([NH][C@@H]3CCCC[C@H]3[NH]2)[O]C1=O [Oxaliplatin, oxaliplatin]	37	9	70	63	13	−18				
CCc1c2c(nc3ccc(O)cc13)-c1cc3c(c(=O)n1C2)COC(=O)[C@]3(O)CC [SN38]	44	33	90	91	22	26	58	46	57	74
